The target of one test is T1, β2 (Rattus norvegicus, UniProt P63138).
T1 construct: expressed in transfected cells; host or cells: Xenopus laevis oocytes (cRNA injection)
Put plainly: Two-electrode voltage clamp, β2 subunit expressed alone in Xenopus oocytes. The test is classed as cell-based. How it is done:
(§1) Animal experiments were carried out in strict accordance to the Swiss ethical guidelines, and have been approved by the local committee of the Canton Bern Kantonstierarzt, Kantonaler Veterinärdienst Bern (BE85/15). Surgery of Xenopus laevis to obtain the oocytes was done under anesthesia, and all efforts were made to diminish animal suffering. Oocytes were prepared, injected and defolliculated as described previously[41],[42]. Polyadenylated cRNA coding for the subunits of GABAA receptors were prepared in vitro with the mMESSAGE mMACHINE kit (Ambion, Austin, TX, USA). Oocytes were injected with 50 nl of solution containing cRNA coding for wild type or mutants β2 (1 fMol) or γ2 (3 fMol) subunits and then incubated in modified Barth’s solution (10 mM HEPES, pH 7.5, 88 mM NaCl, 1 mM KCl, 2.4 mM NaHCO3, 0.82 mM MgSO4, 0.34 mM Ca(NO3)2, 0.41 mM CaCl2, 100 units/ml penicillin, 100 µg/ml streptomycin) at 18 °C for 5–7 days before measurements.
(§2) Electrophysiological experiments were performed using an Oocyte Clamp OC-725 (Warner Instrument Corp., Hamden, USA) two-electrode voltage clamp amplifier. Currents were digitized at 5 kHz with MacLab/200 (AD Instruments, Spechbach, Germany).
(§3) The holding potential was −80 mV. The perfusion medium contained 90 mM NaCl, 1 mM KCl, 1 mM MgCl2, 1 mM CaCl2 and 5 mM Na-HEPES (pH 7.4). […]
(In general: In two-electrode clamp one electrode senses voltage and the other passes current.)

Another test concerns the target T2, γ2S217Aβ2 (Rattus norvegicus, UniProt P18508+P63138, S255A).
T2 construct: expressed in transfected cells; host or cells: Xenopus laevis oocytes (cRNA injection, β2:γ2 1:3)
Put plainly: Two-electrode voltage clamp, mutant γ2S217Aβ2 in Xenopus oocytes. The note with it: for DZ potentiation: 1 µM diazepam. Format: cell-based. The protocol: (§4) The point mutations β2Y62Lγ2, β2T202Aγ2, β2T202Sγ2, β2Y205Sγ2, β2Y205Qγ2, β2γ2F77Y, β2γ2S217A, β2γ2Y220S and β2γ2Y220Q were prepared using the QuickChange^TM mutagenesis kit (Stratagene, Agilent Technologies, Basel, Switzerland).
as §1, §2
(§5) The holding potential was −80 mV. The perfusion medium contained 90 mM NaCl, 1 mM KCl, 1 mM MgCl2, 1 mM CaCl2 and 5 mM Na-HEPES (pH 7.4). The perfusion solution (6 ml/min) was applied through a glass capillary with an inner diameter of 1.35 mm, the mouth of which was placed about 0.5 mm from the surface of the oocyte. […] Maximal current amplitudes (Imax) were obtained from the fits of the concentration-response curves. The individual curves were fitted and standardized to Imax and subsequently averaged. […] The duration of washout periods was 4 min in between agonist or agonist/drug applications to prevent receptor desensitization. […]

In a further test the target is T3, γ2 (Rattus norvegicus, UniProt P18508).
T3 construct: expressed in transfected cells; host or cells: Xenopus laevis oocytes (cRNA injection)
T3 sequence (P18508 39-466): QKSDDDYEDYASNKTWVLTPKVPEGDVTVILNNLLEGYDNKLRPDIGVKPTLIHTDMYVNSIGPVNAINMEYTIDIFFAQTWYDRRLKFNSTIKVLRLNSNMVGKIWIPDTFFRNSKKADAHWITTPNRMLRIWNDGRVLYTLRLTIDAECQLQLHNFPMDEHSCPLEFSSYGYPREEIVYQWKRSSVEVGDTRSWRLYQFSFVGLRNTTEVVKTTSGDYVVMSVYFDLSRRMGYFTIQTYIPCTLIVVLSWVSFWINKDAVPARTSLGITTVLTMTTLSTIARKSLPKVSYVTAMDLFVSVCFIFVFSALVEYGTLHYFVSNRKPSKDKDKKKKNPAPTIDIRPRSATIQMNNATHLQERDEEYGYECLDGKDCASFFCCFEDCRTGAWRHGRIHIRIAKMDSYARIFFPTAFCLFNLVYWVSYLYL
Put plainly: Two-electrode voltage clamp, γ2 subunit expressed alone in Xenopus oocytes. Format: cell-based. How it is done:
as §1, §2, §3

The target in the next test is T4, γ2F77Yβ2 (Rattus norvegicus, UniProt P18508+P63138, F115Y).
T4 construct: expressed in transfected cells; host or cells: Xenopus laevis oocytes (cRNA injection, β2:γ2 1:3)
T4 sequence (P63138 25-474 limits assumed): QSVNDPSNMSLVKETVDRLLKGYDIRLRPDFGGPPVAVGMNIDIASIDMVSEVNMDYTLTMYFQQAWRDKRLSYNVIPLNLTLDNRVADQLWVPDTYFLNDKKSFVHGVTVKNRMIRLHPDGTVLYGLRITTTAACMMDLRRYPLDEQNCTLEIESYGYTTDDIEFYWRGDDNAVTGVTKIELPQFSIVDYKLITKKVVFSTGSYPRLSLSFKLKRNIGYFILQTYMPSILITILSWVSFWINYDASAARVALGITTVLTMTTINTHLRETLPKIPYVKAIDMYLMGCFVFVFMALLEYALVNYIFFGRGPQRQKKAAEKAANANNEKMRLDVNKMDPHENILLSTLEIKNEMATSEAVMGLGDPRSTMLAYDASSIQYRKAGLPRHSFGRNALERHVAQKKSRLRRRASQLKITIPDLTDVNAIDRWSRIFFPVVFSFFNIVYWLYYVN
T4 sequence (P18508 39-466 F115Y): as the sequence (P18508 39-466) above, with F77Y counted along it
The test can be described thus: Two-electrode voltage clamp, mutant γ2F77Yβ2 in Xenopus oocytes. The test is classed as cell-based. The note with it: for DZ potentiation: 1 µM diazepam. How it is done: as §4, §1, §2, §5

For another test, the target named is T5, β2T202Sγ2 (Rattus norvegicus, UniProt P18508+P63138, T226S).
T5 construct: expressed in transfected cells; host or cells: Xenopus laevis oocytes (cRNA injection, β2:γ2 1:3)
T5 sequence (P63138 25-474 T226S limits assumed): as the sequence (P63138 25-474 limits assumed) above, with T202S counted along it
T5 sequence (P18508 39-466): as the sequence (P18508 39-466) above
The test can be described thus: Two-electrode voltage clamp, mutant β2T202Sγ2 in Xenopus oocytes. The following applies: for DZ potentiation: 1 µM diazepam. Format: cell-based. The protocol:
as §4, §1, §2, §5

The next test addresses T6, β2γ2 GABAA receptors (Rattus norvegicus, UniProt P18508+P63138).
T6 construct: expressed in transfected cells; host or cells: Xenopus laevis oocytes (cRNA injection, β2:γ2 1:3)
The test can be described thus: Two-electrode voltage clamp, wild type β2γ2 receptors expressed in Xenopus oocytes. The note with it: for GABA current amplitude: 10 mM GABA; for DZ potentiation: 1 µM diazepam, GABA eliciting 1–5% of maximal current. Format: cell-based. The protocol:
as §1, §2, §5

For another test, the target named is T7, γ2Y220Qβ2 (Rattus norvegicus, UniProt P18508+P63138, Y258Q).
T7 construct: expressed in transfected cells; host or cells: Xenopus laevis oocytes (cRNA injection, β2:γ2 1:3)
T7 sequence (P63138 25-474 limits assumed): as the sequence (P63138 25-474 limits assumed) above
T7 sequence (P18508 39-466 Y258Q): as the sequence (P18508 39-466) above, with Y220Q counted along it
The test can be described thus: Two-electrode voltage clamp, mutant γ2Y220Qβ2 in Xenopus oocytes. Format: cell-based. The note with it: for DZ potentiation: 1 µM diazepam. How it is done: as §4, §1, §2, §5

The next test concerns the target T8, β2Y62Lγ2 (Rattus norvegicus, UniProt P18508+P63138, Y86L).
T8 construct: expressed in transfected cells; host or cells: Xenopus laevis oocytes (cRNA injection, β2:γ2 1:3)
The test can be described thus: Two-electrode voltage clamp, mutant β2Y62Lγ2 in Xenopus oocytes. Format: cell-based. The note with it: for DZ potentiation: 1 µM diazepam. How it is done: as §4, §1, §2, §5

In test [1] the test system is mice carrying a point mutation in all those four alpha subunits. Further details: method as in Ralvenius et al.[40]. The note with it: point-mutated mice, 10 mg/kg diazepam, ref Ralvenius et al.[40], cited from earlier work.
In another test the test system is γ2F77Y in α1β2γ2. The following applies: ref [29], cited from earlier work.
The next test has as its system α1T206V in α1β2γ2. The note with it: ref [28]; cited from earlier work.
Another test deals with α1T206C in α1β2γ2. The note with it: ref [12],[27]; cited from earlier work.
For the next test, the system named is α1T206A in α1β2γ2. The note with it: ref [26]; cited from earlier work.
The test system of another test is α1β2γ2. The following applies: read-out: EC50 of diazepam; cited from earlier work.
A further test concerns α1β2Y62Lγ2 receptors. The test can be described thus: Effect of mutation β2Y62L in α1β2γ2 receptors. Format: cell-based. The note with it: 50 µM etomidate vs GABA.
A further test addresses T9, β2Y205Qγ2 (Rattus norvegicus, UniProt P18508+P63138, Y229Q).
T9 construct: expressed in transfected cells; host or cells: Xenopus laevis oocytes (cRNA injection, β2:γ2 1:3)
Put plainly: Two-electrode voltage clamp, mutant β2Y205Qγ2 in Xenopus oocytes. Format: cell-based. The note with it: 50 µM etomidate. How it is done:
as §4, §1
(§6) Electrophysiological experiments were performed using an Oocyte Clamp OC-725 (Warner Instrument Corp., Hamden, USA) two-electrode voltage clamp amplifier. […]

The target in the next test is T10, γ2Y220Sβ2 (Rattus norvegicus, UniProt P18508+P63138, Y258S).
T10 construct: expressed in transfected cells; host or cells: Xenopus laevis oocytes (cRNA injection, β2:γ2 1:3)
T10 sequence (P63138 25-474 limits assumed): as the sequence (P63138 25-474 limits assumed) above
T10 sequence (P18508 39-466 Y258S): as the sequence (P18508 39-466) above, with Y220S counted along it
The test can be described thus: Two-electrode voltage clamp, mutant γ2Y220Sβ2 in Xenopus oocytes. The test is classed as cell-based. The following applies: 50 µM etomidate. The protocol: as §4, §1, §6

The target in another test is T11, β2T202Aγ2 (Rattus norvegicus, UniProt P18508+P63138, T226A).
T11 construct: expressed in transfected cells; host or cells: Xenopus laevis oocytes (cRNA injection, β2:γ2 1:3)
T11 sequence (P63138 25-474 T226A): as the sequence (P63138 25-474 limits assumed) above, with T202A counted along it
T11 sequence (P18508 39-466): as the sequence (P18508 39-466) above
Put plainly: Two-electrode voltage clamp, mutant β2T202Aγ2 in Xenopus oocytes. The test is classed as cell-based. The following applies: 50 µM etomidate. The protocol: as §4, §1, §6

In a further test the target is T12, β2Y205Sγ2 (Rattus norvegicus, UniProt P18508+P63138, Y229S).
T12 construct: expressed in transfected cells; host or cells: Xenopus laevis oocytes (cRNA injection, β2:γ2 1:3)
T12 sequence (P63138 25-474 Y229S): as the sequence (P63138 25-474 limits assumed) above, with Y205S counted along it
T12 sequence (P18508 39-466): as the sequence (P18508 39-466) above
The test can be described thus: Two-electrode voltage clamp, mutant β2Y205Sγ2 in Xenopus oocytes. The note with it: 50 µM etomidate. The test is classed as cell-based. The protocol:
as §4, §1, §6

Where two headings read alike, the source gives them in different places.

T2 sequence (P63138 25-474 limits assumed): as the sequence (P63138 25-474 limits assumed) above
T2 sequence (P18508 39-466 S255A): as the sequence (P18508 39-466) above, with S217A counted along it
T6 sequence (P63138 25-474 limits assumed): as the sequence (P63138 25-474 limits assumed) above
T6 sequence (P18508 39-466): as the sequence (P18508 39-466) above
T8 sequence (P63138 25-474 Y86L limits assumed): as the sequence (P63138 25-474 limits assumed) above, with Y62L counted along it
T8 sequence (P18508 39-466): as the sequence (P18508 39-466) above
T1 sequence (P63138 25-474 limits assumed): as the sequence (P63138 25-474 limits assumed) above
T9 sequence (P63138 25-474 Y229Q): as the sequence (P63138 25-474 limits assumed) above, with Y205Q counted along it
T9 sequence (P18508 39-466): as the sequence (P18508 39-466) above

With `NCCCC(=O)O` [GABA, γ-Aminobutyric acid], the GABA current amplitude was −4 ± 1 (4) nA at β2 (10 mM GABA); 100 ± 25 (13) nA on γ2S217Aβ2 (γ2S217Aβ2, 10 mM GABA); −4 ± 1 (5) nA on γ2 (10 mM GABA); 148 ± 23 (11) nA on γ2F77Yβ2 (10 mM GABA); 203 ± 18 (5) nA on β2T202Sγ2 (β2T202Sγ2, 10 mM GABA); 131 ± 19 (13) nA at β2γ2 GABAA receptors (β2γ2, cRNA ratio 1:3, −80 mV). The GABA current amplitude entry on β2γ2 GABAA receptors (β2γ2 from 1:1 and 2:1 cRNA ratios) is recorded as “less than 100 nA”; at γ2Y220Qβ2 (γ2Y220Qβ2, 10 mM GABA) it was 127 ± 40 (6) nA; at β2Y62Lγ2 (β2Y62Lγ2, 10 mM GABA), 53 ± 8 (17) nA. The “Hill coefficient of GABA” value came to 0.8 ± 0.1 at γ2S217Aβ2 (β2γ2S217A); 0.9 ± 0.1 on γ2F77Yβ2; 0.8 ± 0.1 on β2T202Sγ2 (β2T202Sγ2); 1.0 ± 0.1 on β2γ2 GABAA receptors (β2γ2); 0.7 ± 0.1 at γ2Y220Qβ2 (β2γ2Y220Q); 1.0 ± 0.1 on β2Y62Lγ2 (β2Y62Lγ2). The “Decrease in sensitivity to GABA” value on γ2S217Aβ2 (β2γ2S217A vs wild-type β2γ2) is listed as 2 fold; at γ2Y220Qβ2 (β2γ2Y220Q vs wild-type β2γ2), 5 fold. Also, the “Decrease in GABA sensitivity” value on β2T202Sγ2 (β2T202Sγ2 vs wild-type β2γ2) was found to be 42 fold. On β2Y62Lγ2 (β2Y62Lγ2 vs wild-type β2γ2), the “Decrease in the sensitivity for GABA” value was 3 fold. Besides, on β2Y62Lγ2 (β2Y62Lγ2 vs wild-type β2γ2), the “Smaller GABA current amplitude compared to wild-type” value amounted to 2 fold.

As for `CN1C(=O)CN=C(c2ccccc2)c2cc(Cl)ccc21` [diazepam], the DZ potentiation result at γ2S217Aβ2 (γ2S217Aβ2) was “not significantly affected”; on γ2S217Aβ2 (γ2S217Aβ2, listed as DZ), 185 ± 23 (4) %; on γ2F77Yβ2, “nearly lost”; at γ2F77Yβ2 (listed as DZ), 5 ± 2 (5) %; at β2T202Sγ2 (β2T202Sγ2), “not significantly affected”; on β2T202Sγ2 (β2T202Sγ2, listed as DZ) it was 100 ± 7 (4) %. Besides, the DZ potentiation was 216 ± 30% at β2γ2 GABAA receptors (β2γ2); 216 ± 30 (15) % on β2γ2 GABAA receptors (β2γ2, listed as DZ); “not significantly affected” at γ2Y220Qβ2 (γ2Y220Qβ2); 127 ± 11 (6) % on γ2Y220Qβ2 (γ2Y220Qβ2, listed as DZ); “not significantly affected” at β2Y62Lγ2 (β2Y62Lγ2); 121 ± 12 (5) % on β2Y62Lγ2 (β2Y62Lγ2, listed as DZ). For the same molecule, in [1] (quite prominent at higher doses), the Locomotor activity result was “trend towards reduced locomotor activity”. Also, the “Diazepam-induced muscle relaxation and motor impairment” value in test [1] is given as “completely protected”. The “Decrease in DZ affinity” value is recorded as 230-fold decrease in DZ affinity with γ2F77Y in α1β2γ2 (listed as DZ), “abolishes the binding site” in the test with γ2F77Y in α1β2γ2, “(7-fold decrease in DZ affinity)” with α1T206V in α1β2γ2 and “(3-fold decrease in DZ affinity)” in the test with α1T206A in α1β2γ2. For the same molecule, the “Hill coefficient of diazepam” value on β2γ2 GABAA receptors (β2γ2) was found to be 0.6 ± 0.1. The “Effect on DZ affinity” value in the test with α1T206C in α1β2γ2 is given as “(no effect on DZ affinity)”. For the same molecule, in the test with α1β2γ2, the EC50 was 92 ± 6 nM.

As for `CCOC(=O)c1cncn1[C@H](C)c1ccccc1` [etomidate], the Etomidate current amplitude is reported as 4 ± 1 (4) nA at β2 (50 µM etomidate); 141 ± 31 (5) nA at γ2S217Aβ2 (γ2S217Aβ2, 50 µM etomidate); 0 ± 0 (5) nA at γ2 (50 µM etomidate); 193 ± 25 (4) nA on γ2F77Yβ2 (50 µM etomidate); 6 ± 2 (5) nA on β2Y205Qγ2; 380 ± 77 (5) nA on β2T202Sγ2 (β2T202Sγ2, 50 µM etomidate). Moreover, the Etomidate current amplitude on β2γ2 GABAA receptors (β2γ2, 50 µM etomidate, −80 mV) was 946 ± 8 (4) nA; at γ2Y220Sβ2, 76 ± 17 (5) nA; at γ2Y220Qβ2 (γ2Y220Qβ2, 50 µM etomidate), 777 ± 113 (5) nA; at β2T202Aγ2, 8 ± 2 (5) nA; at β2Y62Lγ2 (β2Y62Lγ2, 50 µM etomidate) it was 13 ± 3 (11) nA; on β2Y205Sγ2, 0 ± 0 (5) nA. Also, the “Etomidate current relative to GABA current (fold smaller)” value in the test on α1β2Y62Lγ2 receptors is listed as “about 30 fold”; at β2Y62Lγ2 (β2Y62Lγ2, 50 µM etomidate vs saturating GABA) it was “about 4 fold”. The “Etomidate current relative to GABA current (fold larger)” value at β2γ2 GABAA receptors (wild type β2γ2, 50 µM etomidate vs saturating GABA) is listed as “about 7 fold”.

In general, EC50 refers to the concentration that produces a half-maximal response.

The values are drawn from paper PMC5686171 (Scientific Reports, 2017).
